We go through three molecules from US20180250270A1, “MUSCARINIC COMBINATION AND ITS USE FOR COMBATING HYPOCHOLINERGIC DISORDERS OF THE CENTRAL NERVOUS SYSTEM” (Chase Pharmaceuticals Corporation, priority 2015, published 2018).

Like-named read-outs stand apart in the source and are kept apart here.

For data set [1] the following is noted: cited from earlier work.
The conditions of data set [2]: cited from earlier work. The source holds these as a separate data set.
Data set [3] can be described thus: 6-month double-blind, placebo-controlled, parallel group trial of xanomeline in patients with Alzheimer disease. The data set is classed as in vivo, human. The settings on record: in view of Mirza et al 2003; i.e. 225 mg/day. The text has this: A close analog of tazomeline, the 3-(4-hexyloxy-1,2,5-thiadiazol-3-yl)-1-methyl-5,6-dihydro-2H-pyridine known as xanomeline and described in U.S. Pat. No. 5,043,345, the disclosure of which is incorporated herein by reference in its entirety, has been disclosed as a muscarinic acetylcholine receptor agonist with reasonable selectivity for the M1 and M4 subtypes. The efficacy of xanomeline, which stimulates muscarinic receptors in the brain and in the periphery was studied in patients with Alzheimer disease in a 6-month double-blind, placebo-controlled, parallel group trial. […] Such side effects prevented the use of doses of xanomeline that could achieve maximum anti-dementia efficacy and reflect stimulation of cholinergic receptors outside the brain.
Dose-limiting adverse events attending the use of drugs that stimulate cholinergic transmission, such as xanomeline, appear to primarily reflect the excessive stimulation of peripheral cholinergic receptors, especially those of the muscarinic type (mAChRs), such that in both healthy volunteers and Alzheimer's patients many of these side effects have been reported for xanomeline; in the patient population this led to a discontinuation rate higher than 50% while the effects on cognition were not robust and mainly seen at the highest doses tested (Mirza 2003).

For data set [4] the following is noted: clinical trials for Alzheimer disease; cited from earlier work.
The subject of data set [5] is peripheral cholinergic receptors. The settings on record: monkeys; cited from earlier work.
For data set [6] the test system is unchanged. As to conditions: rats; cited from earlier work.
The test system of data set [7] is muscarinic receptors. The settings on record: cited from earlier work.
The conditions of data set [8]: primate study; cited from earlier work.

As for `CCCCCCOc1nsnc1C1=CCCN(C)C1` [xanomeline, 3-(4-hexyloxy-1,2,5-thiadiazol-3-yl)-1-methyl-5,6-dihydro-2H-pyridine], the “patients who discontinued treatment” value in data set [1] (75 mg xanomeline orally three times daily, mainly adverse events, predominantly gastrointestinal) was 59%. Moreover, the “cognitive and behavioral symptoms of Alzheimer disease compared to placebo” value in data set [1] (6-month trial) was “significantly improve”. For the same molecule, the discontinuation rate result in data set [1] (Alzheimer's patient population (Mirza 2003)) is “higher than 50%”. Besides, in data set [1] (bradycardia, gastro-intestinal distress, excessive salivation, sweating), the side effects entry is on record as “dose-dependent unacceptable side effects”. Further, in data set [2] (defined by Sramek et al.), the MTD is 100 mg three times a day. In data set [2] (human, in vivo), the minimum intolerated dose is given as 115 mg three times a day. Besides, in data set [3], the “maximum tolerated dose as considered in the context of the invention” value is 75 mg three times per day.
Turning to `CO/N=C/C1=CCCN(C)C1` [milameline, (E)-N-methoxy-1-(1-methyl-1,2,5,6-tetrahydropyridin-3-yl)methanimine], the maximum tolerated dose in data set [4] was 2 mg four times per day. Besides, the “doses producing central cholinergic action relative to peripheral action” value in data set [5] and in data set [6] was “at doses slightly higher than those stimulating peripheral cholinergic receptors” throughout.
As to `CCCCSc1nsnc1[C@H]1CN2CCC[C@H]1C2` [BuTAC, (5R,6R)-6-(3-butylthio-1,2,5-thiadiazol-4-yl)-1-azabicyclo[3.2.1]octane], the “affinity for muscarinic receptors” value in data set [7] is given as “high affinity”. Further, the vomiting result in data set [8] was “induced vomiting”.
